According to patent publication EP4800013A1, “PARG INHIBITOR” (Shanghai Qilu Pharmaceutical Research and Development …, priority 2023, dated 2025):

Target: T1, PARG (Homo sapiens, UniProt Q86W56)
T1 construct: made in house
Test: Enzymatic inhibitory activity against PARG, HTRF assay
Assay type: biochemical
Details: HTRF; PARylated PARP1 protein as substrate; 60 minutes at room temperature; read-out: IC50 against PARG enzyme
In short: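 Purified PARG pre-incubated with compounds (top 10 µM, 3- to 5-fold dilutions, duplicates) 15 min at room temperature, then PARylated PARP1 substrate added for 60 min in Tris pH 7.4 buffer with DTT, EDTA/EGTA, KCl. HTRF (His-Tb/SA-XL665) read-out; IC50 by four-parameter logistic fit, normalised to DMSO and control-inhibitor wells.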

T1 sequence (Q86W56 whole entry): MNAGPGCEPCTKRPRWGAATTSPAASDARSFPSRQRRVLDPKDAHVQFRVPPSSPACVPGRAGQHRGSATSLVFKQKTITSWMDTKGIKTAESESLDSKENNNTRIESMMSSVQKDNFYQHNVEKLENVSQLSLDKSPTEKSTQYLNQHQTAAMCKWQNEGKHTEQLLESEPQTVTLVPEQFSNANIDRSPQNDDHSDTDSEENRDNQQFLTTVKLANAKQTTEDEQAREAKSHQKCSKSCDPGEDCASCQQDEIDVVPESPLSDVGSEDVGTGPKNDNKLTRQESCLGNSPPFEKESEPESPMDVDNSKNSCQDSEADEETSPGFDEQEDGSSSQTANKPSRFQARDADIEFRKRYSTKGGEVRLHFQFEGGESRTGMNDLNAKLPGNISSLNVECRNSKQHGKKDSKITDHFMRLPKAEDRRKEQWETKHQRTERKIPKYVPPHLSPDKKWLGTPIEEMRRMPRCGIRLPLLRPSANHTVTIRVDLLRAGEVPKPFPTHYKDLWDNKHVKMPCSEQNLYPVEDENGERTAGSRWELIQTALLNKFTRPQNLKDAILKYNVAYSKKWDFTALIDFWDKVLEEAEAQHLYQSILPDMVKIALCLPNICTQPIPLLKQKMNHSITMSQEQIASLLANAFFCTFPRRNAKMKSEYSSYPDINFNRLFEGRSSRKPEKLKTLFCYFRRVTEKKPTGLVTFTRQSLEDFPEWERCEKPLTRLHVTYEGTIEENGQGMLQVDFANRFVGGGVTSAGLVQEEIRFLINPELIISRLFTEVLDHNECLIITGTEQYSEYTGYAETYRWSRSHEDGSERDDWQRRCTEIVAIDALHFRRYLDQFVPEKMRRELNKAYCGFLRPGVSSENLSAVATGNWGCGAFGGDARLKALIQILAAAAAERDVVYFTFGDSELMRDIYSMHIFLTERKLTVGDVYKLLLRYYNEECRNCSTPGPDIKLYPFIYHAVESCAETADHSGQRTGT

Going from `CCc1nc2n(-c3nnc(C(F)F)s3)c3cc(S(=O)(=O)NC4(C)CC4)cc(N4C[C@H](C)N[C@@H](C)C4)c3n2n1` [Compound 065R] to `C[C@H]1CN(c2cc(S(=O)(=O)NC3(C)CC3)cc3c2n2nc(C(F)F)nc2n3-c2nnc(C(F)F)s2)C[C@H](C)N1` [Compound 065S], the IC50 rises from 0.4 nM to 1.4 nM (3.5-fold). The first is the more potent here.

`C[C@H]1CN(c2cc(S(=O)(=O)NC3(C)CC3)cc3c2n2nc(C(F)(F)F)nc2n3-c2nnc(C(F)F)s2)C[C@H](C)N1` [Compound 065W] gave an IC50 of 0.8 nM.

Target: T2, PXR (Homo sapiens, UniProt O75469)
T2 construct: host or cells: DPX2 (HepG2 stably transfected)
T2 sequence (O75469 1-434): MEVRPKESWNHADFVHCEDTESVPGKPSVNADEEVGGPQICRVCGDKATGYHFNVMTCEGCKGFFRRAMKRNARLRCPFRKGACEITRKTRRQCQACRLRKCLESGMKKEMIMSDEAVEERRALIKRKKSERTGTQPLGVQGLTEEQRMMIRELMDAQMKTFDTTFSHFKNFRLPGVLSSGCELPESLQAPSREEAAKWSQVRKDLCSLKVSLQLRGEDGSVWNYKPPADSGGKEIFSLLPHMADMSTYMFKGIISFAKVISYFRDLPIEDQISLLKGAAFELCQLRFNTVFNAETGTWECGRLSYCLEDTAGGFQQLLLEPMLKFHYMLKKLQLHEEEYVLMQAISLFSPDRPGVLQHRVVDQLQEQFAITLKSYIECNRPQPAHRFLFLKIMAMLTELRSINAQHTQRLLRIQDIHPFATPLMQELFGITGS
Test: PXR activation in stably transfected DPX2 cells (CYP3A4 promoter-driven luciferase reporter)
Assay type: cell-based
Details: 24 or 48 hours, test concentration not given
Protocol: The purpose of this study was to evaluate the potential of the compounds of the present disclosure and the comparative compound (WO2023183850A1, compound of formula A) to activate PXR in vitro, thereby inducing drug-metabolizing enzymes.
DPX2 cells (HepG2 cell line stably transfected with PXR and a CYP3A4 promoter-driven luciferase reporter gene) were purchased from Puracyp Inc (Carlsbad, CA). Fetal bovine serum was purchased from Acantor.
• 1) DPX2 cells were cultured in medium containing 10% fetal bovine serum (FBS). • 2) DPX2 cells were cultured in a T-75 flask in a cell culture incubator at 37°C with 5% CO2 and 95% relative humidity. The cells were subjected to trypsinization when they reached 80% to 90% confluence. • 3) The medium was aspirated from the T-75 flask, and the cells were rinsed with 10 mL of PBS. After removing PBS, 3 to 5 mL of trypsin was added. The flask was incubated at 37°C for approximately 5 minutes or until cell detachment and floating were observed. […] After 24 or 48 hours of cell treatment, quantification of PXR activation was performed. • 8) CellTiter Fluor™ Cell Viability Assay Kit and One-Glo Luciferase Assay Kit were equilibrated to room temperature. […] 25 µL of the prepared cell viability assay system was gently added to each well, followed by incubation for 30 minutes in the cell culture incubator at 37°C. • 10) The 384-well plate was removed from the cell culture incubator, and fluorescence of individual wells was measured using a microplate reader in fluorescence mode with excitation at 400 nm and emission at 505 nm. Subsequently, 25 µL of the prepared luciferase assay system was gently added to each well, followed by vortexing and incubation at room temperature for 5 minutes, and luminescence of individual wells was measured using a microplate reader.
Cell viability percentage was calculated using the following formula: Cell viability (%) = Isample / Ivehicle × 100, where Isample is the mean fluorescence intensity of treated wells; Ivehicle is the mean fluorescence intensity of cells treated with 0.1% DMSO. […]

Going from `CCc1nc2n(-c3nnc(C(F)F)s3)c3cc(S(=O)(=O)NC4(C)CC4)cc(N4C[C@H](C)N[C@@H](C)C4)c3n2n1` [Compound 065R] to `C[C@H]1CN(c2cc(S(=O)(=O)NC3(C)CC3)cc3c2n2nc(C(F)F)nc2n3-c2nnc(C(F)F)s2)C[C@H](C)N1` [Compound 065S], the Fold activation rises from 1.45 to 1.82.

`C[C@H]1CN(c2cc(S(=O)(=O)NC3(C)CC3)cc3c2n2nc(C(F)(F)F)nc2n3-c2nnc(C(F)F)s2)C[C@H](C)N1` [Compound 065W] gave a Fold activation of 1.11.
